{"source": "patent US7138361B2", "about": "“Herbicidal heterocycles” (E. I. du Pont de Nemours and Company, priority 2000, dated 2006)", "assay_type_in_all_cases": "in vivo", "key": {"Sunflower [1]": {"test_system": "Sunflower", "assay": "Test C preemergence", "details": "Rate 500 g/ha, visual evaluation after 12 to 14 days"}, "[2]": {"test_system": "velvetleaf (Abutilon theophrasti)", "assay": "Test C preemergence", "in_short": "(§1)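 Visual 0–100 rating vs controls (0 = no effect, 100 = complete control) at 12–14 d, greenhouse. Compounds in non-phytotoxic solvent + surfactant; pre: sprayed after seeding; post: 1–4-leaf plants, 2–18 cm.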"}, "kochia (Kochia scoparia)": {"test_system": "kochia (Kochia scoparia)", "assay": "Test C preemergence", "in_short": "as §1"}, "[3]": {"test_system": "woolly cupgrass (Eriochloa villosa)", "assay": "Test C preemergence", "in_short": "as §1"}, "[4]": {"test_system": "bermudagrass (Cynodon dactylon)", "assay": "Test C preemergence", "in_short": "as §1"}, "[5]": {"test_system": "goosegrass (Eleusine indica)", "assay": "Test C preemergence", "in_short": "as §1"}, "[6]": {"test_system": "pigweed (Amaranthus retroflexus)", "assay": "Test C preemergence", "in_short": "as §1"}, "corn (Zea mays)": {"test_system": "corn (Zea mays)", "assay": "Test C preemergence", "in_short": "as §1"}, "soybean (Glycine max)": {"test_system": "soybean (Glycine max)", "assay": "Test C preemergence", "in_short": "as §1"}, "[7]": {"test_system": "yellow nutsedge (Cyperus esculentus)", "assay": "Test C preemergence", "in_short": "as §1"}, "[8]": {"test_system": "morningglory (Ipomoea hederacea)", "assay": "Test C preemergence", "in_short": "as §1"}, "[9]": {"test_system": "crabgrass (Digitaria sanguinalis)", "assay": "Test C preemergence", "in_short": "as §1"}, "[10]": {"test_system": "Surinam grass (Brachiaria decumbens)", "assay": "Test C preemergence", "in_short": "as §1"}, "[11]": {"test_system": "cocklebur (Xanthium strumarium)", "assay": "Test C preemergence", "in_short": "as §1"}, "[12]": {"test_system": "giant foxtail (Setaria faberii)", "assay": "Test C preemergence", "in_short": "as §1"}, "[13]": {"test_system": "johnsongrass (Sorghum halepense)", "assay": "Test C preemergence", "in_short": "as §1"}, "Sunflower [14]": {"test_system": "Sunflower", "assay": "Test C preemergence", "details": "Rate 125 g/ha; scale 0 to 100, 0 no effect, 100 complete control"}, "Nightshade": {"test_system": "Nightshade", "assay": "Test C preemergence"}, "[15]": {"test_system": "lambsquarters (Chenopodium album)", "assay": "Test C preemergence", "in_short": "as §1"}, "[16]": {"test_system": "barnyardgrass (Echinochloa crus-galli)", "assay": "Test C flooded paddy test", "details": "for Plant response rating, Barnyardgrass: flooded paddy test, scale 0 to 100 (0 no effect, 100 complete control)", "in_short": "(§2)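 Each species was cultivated to 2 leaves in flooded paddy pots, then treated. After a greenhouse period of 12–14 days, the plants were scored visually relative to controls from 0 (no effect) to 100 (complete control).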"}, "[17]": {"test_system": "smallflower flatsedge (Cyperus difformis)", "assay": "Test C flooded paddy test", "details": "for Flatsedge plant response rating: Flooded Paddy, scale 0 to 100, 0 no effect, 100 complete control; for Plant response rating, Flatsedge: flooded paddy test, scale 0 to 100 (0 no effect, 100 complete control)", "in_short": "as §2"}, "[18]": {"test_system": "duck salad (Heteranthera limosa)", "assay": "Test C flooded paddy test", "details": "for Ducksalad plant response rating: Flooded Paddy, scale 0 to 100, 0 no effect, 100 complete control; for Plant response rating, Ducksalad: flooded paddy test, scale 0 to 100 (0 no effect, 100 complete control)", "in_short": "as §2"}, "[19]": {"details": "Rate 125 g/ha, scale 0 to 100, 0 no effect, 100 complete control"}, "[20]": {"details": "preemergence, Rate 62 g/ha, scale 0 to 100"}, "[21]": {"details": "preemergence, Rate 500 g/ha, visual evaluation after 12 to 14 days"}, "[22]": {"details": "preemergence, Rate 250 g/ha, scale 0 to 100, 0 no effect, 100 complete control"}}}
{"smiles": "COc1cc(N2CCC(n3ccc(C(C)C)n3)C2=O)ccc1Cl", "note": "(centres unmarked) [Compound 120]", "values": [{"measurement": "Plant response rating (0 to 100), Sunflower", "setting": "Sunflower [1]", "value": 100}, {"measurement": "Plant response rating, Velvetleaf", "setting": "[2]; [19]", "value": 100}, {"measurement": "Plant response rating, Velvetleaf", "setting": "[2]; [20]", "value": 80}, {"measurement": "Plant response rating (0 to 100), Velvetleaf", "setting": "[2]; [21]", "value": 100}, {"measurement": "Plant response rating, Velvetleaf", "setting": "[2]; [22]", "value": 100}, {"measurement": "Plant response rating, Kochia", "setting": "kochia (Kochia scoparia); [19]", "value": 100}, {"measurement": "Plant response rating, Kochia", "setting": "kochia (Kochia scoparia); [20]", "value": 100}, {"measurement": "Plant response rating (0 to 100), Kochia", "setting": "kochia (Kochia scoparia); [21]", "value": 100}, {"measurement": "Plant response rating, Kochia", "setting": "kochia (Kochia scoparia); [22]", "value": 100}, {"measurement": "Plant response rating, Cupgrass, Woolly", "setting": "[3]; [19]", "value": 100}, {"measurement": "Plant response rating, Cupgrass, Woolly", "setting": "[3]; [20]", "value": 100}, {"measurement": "Plant response rating (0 to 100), Cupgrass, Woolly", "setting": "[3]; [21]", "value": 100}, {"measurement": "Plant response rating, Cupgrass, Woolly", "setting": "[3]; [22]", "value": 100}, {"measurement": "Plant response rating, Bermudagrass", "setting": "[4]; [19]", "value": 100}, {"measurement": "Plant response rating, Bermudagrass", "setting": "[4]; [20]", "value": 100}, {"measurement": "Plant response rating (0 to 100 where 0 is no effect and 100 is complete control), Bermudagrass", "setting": "[4]; [21]", "value": 100}, {"measurement": "Plant response rating, Bermudagrass", "setting": "[4]; [22]", "value": 100}, {"measurement": "Plant response rating, Goosegrass", "setting": "[5]; [19]", "value": 100}, {"measurement": "Plant response rating, Goosegrass", "setting": "[5]; [20]", "value": 100}, {"measurement": "Plant response rating (0 to 100), Goosegrass", "setting": "[5]; [21]", "value": 100}, {"measurement": "Plant response rating, Goosegrass", "setting": "[5]; [22]", "value": 100}, {"measurement": "Plant response rating, Pigweed", "setting": "[6]; [19]", "value": 100}, {"measurement": "Plant response rating, Pigweed", "setting": "[6]; [20]", "value": 100}, {"measurement": "Plant response rating (0 to 100), Pigweed", "setting": "[6]; [21]", "value": 70}, {"measurement": "Plant response rating, Pigweed", "setting": "[6]; [22]", "value": 50}, {"measurement": "Plant response rating, Corn", "setting": "corn (Zea mays); [19]", "value": 0}, {"measurement": "Plant response rating, Corn", "setting": "corn (Zea mays); [20]", "value": 0}, {"measurement": "Plant response rating (0 to 100), Corn", "setting": "corn (Zea mays); [21]", "value": 60}, {"measurement": "Plant response rating, Corn", "setting": "corn (Zea mays); [22]", "value": 20}, {"measurement": "Plant response rating, Soybean", "setting": "soybean (Glycine max); [19]", "value": 70}, {"measurement": "Plant response rating, Soybean", "setting": "soybean (Glycine max); [20]", "value": 60}, {"measurement": "Plant response rating (0 to 100), Soybean", "setting": "soybean (Glycine max); [21]", "value": 100}, {"measurement": "Plant response rating, Soybean", "setting": "soybean (Glycine max); [22]", "value": 80}, {"measurement": "Plant response rating, Nutsedge", "setting": "[7]; [19]", "value": 80}, {"measurement": "Plant response rating, Nutsedge", "setting": "[7]; [20]", "value": 40}, {"measurement": "Plant response rating (0 to 100), Nutsedge", "setting": "[7]; [21]", "value": 100}, {"measurement": "Plant response rating, Nutsedge", "setting": "[7]; [22]", "value": 100}, {"measurement": "Plant response rating, Morningglory", "setting": "[8]; [19]", "value": 60}, {"measurement": "Plant response rating, Morningglory", "setting": "[8]; [20]", "value": 60}, {"measurement": "Plant response rating (0 to 100), Morningglory", "setting": "[8]; [21]", "value": 100}, {"measurement": "Plant response rating, Morningglory", "setting": "[8]; [22]", "value": 100}, {"measurement": "Plant response rating, Crabgrass", "setting": "[9]; [19]", "value": 100}, {"measurement": "Plant response rating, Crabgrass", "setting": "[9]; [20]", "value": 100}, {"measurement": "Plant response rating (0 to 100), Crabgrass", "setting": "[9]; [21]", "value": 100}, {"measurement": "Plant response rating, Crabgrass", "setting": "[9]; [22]", "value": 100}, {"measurement": "Plant response rating, Surinam grass", "setting": "[10]; [19]", "value": 100}, {"measurement": "Plant response rating, Surinam grass", "setting": "[10]; [20]", "value": 90}, {"measurement": "Plant response rating (0 to 100), Surinam grass", "setting": "[10]; [21]", "value": 100}, {"measurement": "Plant response rating, Surinam grass", "setting": "[10]; [22]", "value": 100}, {"measurement": "Plant response rating, Cocklebur", "setting": "[11]; [19]", "value": 0}, {"measurement": "Plant response rating, Cocklebur", "setting": "[11]; [20]", "value": 0}, {"measurement": "Plant response rating (0 to 100), Cocklebur", "setting": "[11]; [21]", "value": 30}, {"measurement": "Plant response rating, Cocklebur", "setting": "[11]; [22]", "value": 30}, {"measurement": "Plant response rating, Foxtail, Giant", "setting": "[12]; [19]", "value": 50}, {"measurement": "Plant response rating, Foxtail, Giant", "setting": "[12]; [20]", "value": 50}, {"measurement": "Plant response rating (0 to 100), Foxtail, Giant", "setting": "[12]; [21]", "value": 100}, {"measurement": "Plant response rating, Foxtail, Giant", "setting": "[12]; [22]", "value": 60}, {"measurement": "Plant response rating, Johnsongrass", "setting": "[13]; [19]", "value": 80}, {"measurement": "Plant response rating, Johnsongrass", "setting": "[13]; [20]", "value": 20}, {"measurement": "Plant response rating (0 to 100), Johnsongrass", "setting": "[13]; [21]", "value": 100}, {"measurement": "Plant response rating, Johnsongrass", "setting": "[13]; [22]", "value": 100}, {"measurement": "Plant response rating, Sunflower", "setting": "Sunflower [14]", "value": 90}, {"measurement": "Plant response rating, Nightshade", "setting": "Nightshade; Rate 62 g/ha, scale 0 to 100", "value": 100}, {"measurement": "Plant response rating, Nightshade", "setting": "Nightshade; [19]", "value": 100}, {"measurement": "Plant response rating, Nightshade", "setting": "Nightshade; Rate 250 g/ha, scale 0 to 100, 0 no effect, 100 complete control", "value": 100}, {"measurement": "Plant response rating, Lambsquarters", "setting": "[15]; [19]", "value": 100}, {"measurement": "Plant response rating, Lambsquarters", "setting": "[15]; [20]", "value": 100}, {"measurement": "Plant response rating (0 to 100), Lambsquarters", "setting": "[15]; [21]", "value": 100}, {"measurement": "Plant response rating, Lambsquarters", "setting": "[15]; [22]", "value": 100}, {"measurement": "Barnyardgrass plant response rating", "setting": "[16]; Flooded Paddy, Rate 250 g/ha, scale 0 to 100, 0 no effect, 100 complete control", "value": 80}, {"measurement": "Plant response rating, Barnyardgrass", "setting": "[16]; Rate 62 g/ha", "value": 20}, {"measurement": "Plant response rating, Barnyardgrass", "setting": "[16]; Rate 125 g/ha", "value": 50}, {"measurement": "Flatsedge plant response rating", "setting": "[17]; Rate 250 g/ha", "value": 100}, {"measurement": "Flatsedge plant response rating", "setting": "[17]; Rate 500 g/ha", "value": 100}, {"measurement": "Plant response rating, Flatsedge", "setting": "[17]; Rate 62 g/ha", "value": 90}, {"measurement": "Plant response rating, Flatsedge", "setting": "[17]; Rate 125 g/ha", "value": 100}, {"measurement": "Ducksalad plant response rating", "setting": "[18]; Rate 250 g/ha", "value": 100}, {"measurement": "Ducksalad plant response rating", "setting": "[18]; Rate 500 g/ha", "value": 100}, {"measurement": "Plant response rating, Ducksalad", "setting": "[18]; Rate 62 g/ha", "value": 70}, {"measurement": "Plant response rating, Ducksalad", "setting": "[18]; Rate 125 g/ha", "value": 100}]}
